Holding throughout (format): in vivo, C57BL/6 mice
Test [1] concerns bleomycin-induced pulmonary fibrosis model. Briefly: Early pulmonary fibrosis: bleomycin-induced model, dosing from one week after modelling. Particulars: for Leucocyte / Lymphocyte / Neutrophil / Ashcroft scores: early pulmonary fibrosis, 120 mg/kg/d intragastric, 14 days, from one week after model; for Leucocyte / Lymphocyte / Neutrophil: blood, Day 15, twice every day; for Ashcroft scores: lung tissue HE staining.

For test [2] the test system is unchanged. Briefly: Comparison with comparative drugs: bleomycin-induced model, hydroxyproline and TGF-β. Particulars: 120 mg/kg/d intragastric, twice every day, 14 days, from two weeks after model; Day 15.
Test [3] has as its system influenza B virus-induced pulmonary fibrosis model (influenza B (H7N9) virus). Particulars: 120 mg/kg/d intragastric, 14 days; for Ashcroft scores: influenza B virus + bleomycin, lung tissue HE; for IL-1β / NF-κB / TNF-α / IL-6: serum, from two weeks after model; for IL-1β / NF-κB / TNF-α: influenza B (H7N9) + bleomycin; for IL-6: influenza B + bleomycin.
The subject of test [4] is coronavirus-induced pulmonary fibrosis model (HcoV-OC43). Description: Coronavirus-induced pulmonary fibrosis model. Particulars: 120 mg/kg/d intragastric, 14 days; for Ashcroft scores: coronavirus HcoV-OC43 + bleomycin, lung tissue HE; for IL-1β / IL-6 / NF-κB / TNF-α: serum, HcoV-OC43 + bleomycin, from two weeks after model. From the text: Experimental method: an in-vivo coronavirus-induced pulmonary fibrosis model mice was established: C57BL/6 mice (with weights being 22-25 g) were randomly and evenly divided into a plurality of groups, including blank control group, model group, Nintedanib positive control group, hypoxanthine analogue A group, hypoxanthine analogue B group, hypoxanthine analogue C group, compound 1 group, compound 2 group . . . compound 12 group, with 9 mice in each group. On Day 1, the mice in the blank control group were instilled with normal saline nasally, and the mice in other groups were all infected with HcoV-OC43 coronavirus strains (30 μL) through nasal instillation. On Day 2, the mice received 5 mg/kg bleomycin through tracheas to induce their pulmonary fibrosis. After the model was established for two weeks, the mice in each group were intragastrically administrated for intervention for consecutive 14 days; the mice in blank control group and model group intragastrically received the same dosage of the normal saline as those in drug groups; the mice in Nintedanib positive control group received Nintedanib (120 mg/kg); the mice in hypoxanthine analogue A group, hypoxanthine analogue B group and hypoxanthine analogue C group respectively received hypoxanthine analogue A (120 mg/kg/d), hypoxanthine analogue B (120 mg/kg/d) and hypoxanthine analogue C (120 mg/kg/d); and the mice in compound 1 group, compound 2 group . . . compound 12 group respectively received compound 1 (120 mg/kg/d), compound 2 (120 mg/kg/d) . . . compound 12 (120 mg/kg/d) prepared in example 1. After administration for consecutive 14 days, the mice were observed every day, and their weights and death conditions were recorded. After administration, blood was taken from eyeballs for immediately detecting the expression levels of NF-κB, TNF-α, IL-1 and IL-6 in serum, and lung tissues were taken for HE detection and Ashcroft scoring.

Test [5] has as its system novel coronavirus-induced pulmonary fibrosis model (COVID-19 novel coronavirus strains). Description: Novel coronavirus-induced pulmonary fibrosis model. Particulars: 120 mg/kg/d intragastric, 14 days; for Ashcroft scores: novel coronavirus + bleomycin, lung tissue HE; for IL-1β / IL-6 / NF-κB / TNF-α: serum, COVID-19 novel coronavirus + bleomycin, from two weeks after model. From the text: Experimental method: an in-vivo novel coronavirus-induced pulmonary fibrosis model was established: C57BL/6 mice (with weights being 22-25 g) were randomly and evenly divided into a plurality of groups, including blank control group, model group, Nintedanib positive control group, hypoxanthine analogue A group, hypoxanthine analogue B group, hypoxanthine analogue C group, compound 1 group, a compound 2 group . . . compound 12 group, with 9 mice in each group. On Day 1, the mice in blank control group were instilled with normal saline nasally, and the mice in other groups were all infected with COVID-19 novel coronavirus strains (30 μL) through nasal instillation. On Day 2, the mice received 5 mg/kg bleomycin through tracheas to induce their pulmonary fibrosis. After the model was established for two weeks, the mice in each group were intragastrically administrated for intervention for consecutive 14 days; the mice in blank control group and model group intragastrically received the same dosage of normal saline as those in drug groups; the mice in Nintedanib positive control group received Nintedanib (120 mg/kg); the mice in hypoxanthine analogue A group, hypoxanthine analogue B group and hypoxanthine analogue C group respectively received hypoxanthine analogue A (120 mg/kg/d), hypoxanthine analogue B (120 mg/kg/d) and hypoxanthine analogue C (120 mg/kg/d); and the mice in compound 1 group, compound 2 group . . . compound 12 group respectively received compound 1 (120 mg/kg/d), compound 2 (120 mg/kg/d) . . . compound 12 (120 mg/kg/d) prepared in example 1. After administration for consecutive 14 days, the mice were observed every day, and their weights and death conditions were recorded. After administration, blood was taken from eyeballs for immediately detecting the expression levels of NF-κB, TNF-α, IL-1 and IL-6 in serum, and lung tissues were taken for HE detection and Ashcroft scoring.

Each structure is given as a SMILES string.

Consider `CCCOc1ncnc2c1ncn2C(C)C` [Compound 9], for which, in test [1], the Leucocyte is recorded as 4.14 10^9/L, the Lymphocyte is recorded as 5.23 10^9/L, the Neutrophil was 1.33 10^9/L and the Ashcroft scores stood at 1.12. In test [2], the “Hydroxyproline in bronchoalveolar lavage fluids” value was 0.73 ± 0.09 µg/mg, the “Hydroxyproline in lung tissues” value stood at 1.41 ± 0.09 µg/mg, the “TGF-β in bronchoalveolar lavage fluids” value worked out at 4.05 ± 0.14 µg/L and the “TGF-β in lung tissues” value came out at 25.65 ± 2.16 µg/L. In test [3], the Ashcroft scores is 1.23, the IL-1β was 26.9 pg/mL, the NF-κB stood at 30.8 pg/mL and the TNF-α amounted to 73.8 pg/mL. Further, in test [3], the IL-6 worked out at 66.1 pg/mL. In test [4], the Ashcroft scores is on record as 1.31, the IL-1β was 35.9 pg/mL, the IL-6 is on record as 64.3 pg/mL and the NF-κB is listed as 24.4 pg/mL. Besides, in test [4], the TNF-α amounted to 55.1 pg/mL. In test [5], the Ashcroft scores is 1.34, the IL-1β turned out to be 39.6 pg/mL, the IL-6 is listed as 69.1 pg/mL and the NF-κB came out at 22.9 pg/mL. Moreover, the TNF-α in test [5] is 68.8 pg/mL.
Regarding `CC(C)Oc1ncnc2c1N(C(C)C)CN2C(C)C` [Compound 10], in test [1], the Leucocyte is listed as 4.17 10^9/L, the Lymphocyte is 5.27 10^9/L, the Neutrophil is recorded as 1.21 10^9/L and the Ashcroft scores is given as 1.17. Besides, in test [2], the “Hydroxyproline in bronchoalveolar lavage fluids” value turned out to be 0.74 ± 0.06 µg/mg, the “Hydroxyproline in lung tissues” value was determined as 1.37 ± 0.08 µg/mg, the “TGF-β in bronchoalveolar lavage fluids” value was found to be 4.21 ± 0.18 µg/L and the “TGF-β in lung tissues” value came to 24.12 ± 2.25 µg/L. In test [3], the Ashcroft scores amounted to 1.25, the IL-1β is on record as 27.8 pg/mL, the NF-κB is recorded as 31.2 pg/mL and the TNF-α is recorded as 74.7 pg/mL. Besides, the IL-6 in test [3] amounted to 65.5 pg/mL. In test [4], the Ashcroft scores is listed as 1.41, the IL-1β stood at 37.7 pg/mL, the IL-6 turned out to be 68.2 pg/mL and the NF-κB is on record as 25.3 pg/mL. For the same compound, the TNF-α in test [4] turned out to be 56.2 pg/mL. Also, in test [5], the Ashcroft scores came out at 1.67, the IL-1β is reported as 38.1 pg/mL, the IL-6 was found to be 67.5 pg/mL and the NF-κB is 26.5 pg/mL. Also, the TNF-α in test [5] is 68.9 pg/mL.
Consider `CC(=O)Oc1ncnc2c1ncn2C(C)C` [Compound 11], for which, in test [1], the Leucocyte is reported as 4.09 10^9/L, the Lymphocyte was 5.20 10^9/L, the Neutrophil is 1.10 10^9/L and the Ashcroft scores is 1.08. Also, in test [2], the “Hydroxyproline in bronchoalveolar lavage fluids” value stood at 0.75 ± 0.05 µg/mg, the “Hydroxyproline in lung tissues” value came to 1.43 ± 0.11 µg/mg, the “TGF-β in bronchoalveolar lavage fluids” value came out at 4.02 ± 0.15 µg/L and the “TGF-β in lung tissues” value is 23.98 ± 2.19 µg/L. In test [3], the Ashcroft scores was determined as 1.15, the IL-1β was found to be 26.8 pg/mL, the NF-κB is recorded as 31.6 pg/mL and the TNF-α amounted to 73.5 pg/mL. In addition, the IL-6 in test [3] was found to be 65.3 pg/mL. For the same compound, in test [4], the Ashcroft scores stood at 1.29, the IL-1β is given as 35.4 pg/mL, the IL-6 is 63.3 pg/mL and the NF-κB is 25.1 pg/mL. Besides, the TNF-α in test [4] stood at 52.1 pg/mL. In test [5], the Ashcroft scores is on record as 1.31, the IL-1β was found to be 37.2 pg/mL, the NF-κB was determined as 26.7 pg/mL and the TNF-α was determined as 69.0 pg/mL.
`CCC(=O)Oc1ncnc2c1ncn2C(C)C` [Compound 12]: in test [1], the Leucocyte is on record as 4.21 10^9/L, the Lymphocyte is given as 5.24 10^9/L, the Neutrophil is listed as 1.18 10^9/L and the Ashcroft scores is 1.14. Also, in test [2], the “Hydroxyproline in bronchoalveolar lavage fluids” value was 0.76 ± 0.08 µg/mg, the “Hydroxyproline in lung tissues” value stood at 1.41 ± 0.12 µg/mg, the “TGF-β in bronchoalveolar lavage fluids” value came out at 4.06 ± 0.15 µg/L and the “TGF-β in lung tissues” value was 23.91 ± 2.38 µg/L. Besides, in test [3], the Ashcroft scores came out at 1.26, the IL-1β was determined as 27.8 pg/mL, the NF-κB is 32.9 pg/mL and the TNF-α came out at 75.4 pg/mL. Also, in test [3], the IL-6 is 69.7 pg/mL. Also, in test [4], the Ashcroft scores is 1.37, the IL-1β is reported as 35.8 pg/mL, the IL-6 is recorded as 66.5 pg/mL and the NF-κB came out at 27.7 pg/mL. Further, the TNF-α in test [4] was 54.4 pg/mL. In test [5], the Ashcroft scores came to 1.18, the IL-1β came to 38.9 pg/mL, the IL-6 is given as 66.8 pg/mL and the NF-κB was found to be 27.3 pg/mL. Besides, the TNF-α in test [5] worked out at 68.4 pg/mL.
Consider `O=c1[nH]cnc2[nH]cnc12` [Hypoxanthine analogue A, reference compound], for which, in test [1], the Leucocyte is given as 52.12 10^9/L, the Lymphocyte is recorded as 49.53 10^9/L, the Neutrophil is 41.21 10^9/L and the Ashcroft scores was 5.00. For the same compound, the “inhibition (anti-inflammatory) effect on leucocytes, neutrophils and lymphocytes in blood” value in test [1] (mice with early pulmonary fibrosis, result in words) is given as “obviously inferior”. In test [2], the “Hydroxyproline in bronchoalveolar lavage fluids” value was found to be 1.46 ± 0.13 µg/mg, the “Hydroxyproline in lung tissues” value was determined as 2.69 ± 0.12 µg/mg, the “TGF-β in bronchoalveolar lavage fluids” value is 9.23 ± 0.26 µg/L and the “TGF-β in lung tissues” value is 96.47 ± 8.25 µg/L. Also, in test [3], the Ashcroft scores worked out at 6.26, the IL-1β stood at 239.9 pg/mL, the NF-κB is 630.5 pg/mL and the TNF-α was 191.3 pg/mL. The IL-6 in test [3] is listed as 194.8 pg/mL. For the same compound, in test [4], the Ashcroft scores turned out to be 6.23, the IL-1β is reported as 688.8 pg/mL, the IL-6 was found to be 519.4 pg/mL and the NF-κB was found to be 719.1 pg/mL. Besides, the TNF-α in test [4] was 450.7 pg/mL. Further, in test [5], the Ashcroft scores was determined as 6.13, the IL-1β was determined as 489.0 pg/mL, the IL-6 is on record as 554.5 pg/mL and the NF-κB is recorded as 731.3 pg/mL. Further, the TNF-α in test [5] is 400.5 pg/mL.

Source of the values: patent publication US20250188082A1, “Use of Hypoxanthine Compound In Preparation of Drug For Treating Pulmonary Fibrosis” (Sichuan Yiasuo Pharmaceutical Technology Co., Ltd., priority 2022, published 2025).
